Experimental data: patent US20150274664A1 (MERCK SHARP & DOHME CORP., priority 2012, published 2015)

The compounds below were run against T1, human GPR119 (Homo sapiens, UniProt Q8TDV5) (assay: Measurement of GPR119 signaling using LANCE 384-well cAMP kit (LCMP assay)). Conditions: HEK293 cells stably transfected with human GPR119.
T1 construct: expressed in transfected cells; host or cells: HEK293
T1 sequence (Q8TDV5 1-335): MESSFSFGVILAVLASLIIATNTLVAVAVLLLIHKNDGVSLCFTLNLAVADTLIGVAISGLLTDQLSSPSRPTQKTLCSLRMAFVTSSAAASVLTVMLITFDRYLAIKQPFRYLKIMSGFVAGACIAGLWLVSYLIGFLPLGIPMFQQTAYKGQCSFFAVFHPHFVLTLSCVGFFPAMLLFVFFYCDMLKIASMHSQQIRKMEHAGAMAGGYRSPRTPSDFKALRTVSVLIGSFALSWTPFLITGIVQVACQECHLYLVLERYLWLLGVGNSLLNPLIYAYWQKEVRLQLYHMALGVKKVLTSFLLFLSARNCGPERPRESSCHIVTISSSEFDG
Format: cell-based
Description: Measurement of GPR119 Signaling Using LANCE 384-Well cAMP Kit (LCMP Assay)
Human embryonic kidney (HEK) 293 cell lines stably transfected with human GPR119 were maintained in DMEM media containing FBS, penicillin-streptomycin, HEPES, and hygromycin. For the cAMP assay, the transfected cells were harvested using a non-enzymatic cell dissociation solution (GIBCO 2672), pelleted and resuspended in stimulation buffer (DMEM, 25 mM Hepes, 0.1% BSA, pH 7.4 in the presence of 100 μM phosphodiesterase inhibitors). The adenylate cyclase assay was constructed following the LANCE™ cAMP Kit (Perkin Elmer, AD0264) instructions. Briefly, cells with Alexa Fluor® 647-anti cAMP antibody were incubated with 10 point series diluted test article in stimulation buffer with a final concentration of 2.5% DMSO for 45 minutes. The reaction was stopped by incubating with the supplied detection buffer containing the europium chelate of the Eu-SA/Biotin-cAMP tracer for 3 hours. The assay was performed in duplicate in a 384 well plate for duplicate plates. Fluorescence at 665 nm was measured using a PHERAstar instrument. Basal activity was determined using a DMSO control and maximum response was defined as cAMP stimulation produced by an internal agonist control. Standard cAMP concentrations were assayed concurrently for conversion of fluorescence signal to cAMP level. The data was analyzed using 4-parameter curve fit in Microsoft Excel.

EC50 [nM]	Structure (SMILES)
1.6	CS(=O)(=O)c1ccc(COC[C@H]2C[C@@H]2C2CCN(c3ncc(Cl)cn3)CC2)c(F)c1 [Example 4]
1.3	CCc1cnc(N2CCC([C@H]3C[C@@H]3COCc3ccc(S(C)(=O)=O)cc3F)CC2)nc1 [Example 8, 5-ethyl-2-(4-((1R,2S)-2-(((2-fluoro-4-(methylsulfonyl)benzyl)oxy)methyl)cyclopropyl)piperidin-1-yl)pyrimidine]
22	CCc1cnc(N2CCC([C@H]3C[C@@H]3COCc3ccc(S(=O)(=O)CC)cc3)CC2)nc1 [Example 9, 5-ethyl-2-(4-((1R,2S)-2-(((4-(ethylsulfonyl)benzyl)oxy)methyl)cyclopropyl)piperidin-1-yl)pyrimidine]
7.1	COCc1cnc(N2CCC([C@H]3C[C@@H]3COCc3ccc(S(C)(=O)=O)cc3F)CC2)nc1 [Example 11, 2-(4-((1R,2S)-2-(((2-fluoro-4-(methylsulfonyl)benzyl)oxy)methyl)cyclopropyl)piperidin-1-yl)-5-(methoxymethyl)pyrimidine]
14	COCc1cnc(N2CCC([C@H]3C[C@@H]3COCc3ccc(S(C)(=O)=O)cc3)CC2)nc1 [Example 12, 5-(methoxymethyl)-2-(4-((1R,2S)-2-(((4-(methylsulfonyl)benzyl)oxy)methyl)cyclopropyl)piperidin-1-yl)pyrimidine]
24	CCS(=O)(=O)c1ccc(COC[C@H]2C[C@@H]2C2CCN(c3ncc(COC)cn3)CC2)cc1 [Example 13, 2-(4-((1R,2S)-2-(((4-(ethylsulfonyl)benzyl)oxy)methyl)cyclopropyl)piperidin-1-yl)-5-(methoxymethyl)pyrimidine]
8.8	CC1(OC(=O)N2CCC([C@H]3C[C@@H]3COCc3ccc(S(C)(=O)=O)cc3F)CC2)CC1 [Example 14, 1-methylcyclopropyl 4-((1R,2S)-2-((2-fluoro-4-(methylsulfonyl)benzyloxy)methyl)cyclopropyl)piperidine-1-carboxylate]
13	CC1(OC(=O)N2CCC([C@H]3C[C@@H]3COCc3ccc(CC(=O)N4CCC4)cc3F)CC2)CC1 [Example 23, 1-methylcyclopropyl 4-((1R,2S)-2-((4-(2-(azetidin-1-yl)-2-oxoethyl)-2-fluorobenzyloxy)methyl)cyclopropyl)piperidine-1-carboxylate]
8.3	CS(=O)(=O)c1ccc(OCC[C@@H]2C[C@H]2C2CCN(c3ncc(Cl)cn3)CC2)cc1F [Example 24, 5-chloro-2-(4-((1S,2S)-2-(2-(3-fluoro-4-(methylsulfonyl)phenoxy)ethyl)cyclopropyl)piperidin-1-yl)pyrimidine]
4.1	CS(=O)(=O)c1ccc(OCC[C@H]2C[C@@H]2C2CCN(c3ncc(Cl)cn3)CC2)cc1F [Example 25, 5-chloro-2-(4-((1R,2R)-2-(2-(3-fluoro-4-(methylsulfonyl)phenoxy)ethyl)cyclopropyl)piperidin-1-yl)pyrimidine]
9.4	CCc1cnc(N2CCC([C@@H]3C[C@H]3CCOc3ccc(S(C)(=O)=O)cc3F)CC2)nc1 [Example 26, 5-ethyl-2-(4-((1S,2S)-2-(2-(2-fluoro-4-(methylsulfonyl)phenoxy)ethyl)cyclopropyl)piperidin-1-yl)pyrimidine]
5.5	CCc1cnc(N2CCC([C@H]3C[C@@H]3CCOc3ccc(S(C)(=O)=O)c(F)c3)CC2)nc1 [Example 27, 5-ethyl-2-(4-((1R,2R)-2-(2-(3-fluoro-4-(methylsulfonyl)phenoxy)ethyl)cyclopropyl)piperidin-1-yl)pyrimidine]
8.8	CCc1cnc(N2CCC([C@H]3C[C@@H]3CCOc3ccc(S(C)(=O)=O)cc3F)CC2)nc1 [Example 28, 5-ethyl-2-(4-((1R,2R)-2-(2-(2-fluoro-4-(methylsulfonyl)phenoxy)ethyl)cyclopropyl)piperidin-1-yl)pyrimidine]
17	CS(=O)(=O)c1ccc(OCC[C@@H]2C[C@H]2C2CCN(c3ncc(Cl)cn3)CC2)c(F)c1 [Example 29, 5-chloro-2-(4-((1S,2S)-2-(2-(2-fluoro-4-(methylsulfonyl)phenoxy)ethyl)cyclopropyl)piperidin-1-yl)pyrimidine]
